From patent US20080199858A1, “Method for Detecting Estrogen-Like Chemicals by Plant” (priority 2004, published 2008)

Target: T1, chimeric estrogen receptor containing hERαLBD and LexA DBD (Homo sapiens, UniProt P03372)
T1 construct: expressed in transfected cells; host or cells: transgenic Arabidopsis thaliana (Columbia), Agrobacterium C58-mediated transformation, CaMV 35S promoter
Format: in vivo
Details: T2 seeds on MS agar medium, grown for a week; FIG. 6
Procedure: Seeds of T3 were sown on a MS agar medium containing 17β-estradiol (WAKO Pure Chemical Inds.). The expression of GUS gene was examined by GUS activity staining method and GUS activity assay method by the use of a transformed plant grown for a week.
The induction of reporter gene expression by estrogen in transformed Arabidopsis thaliana was performed by the following procedures. […] After that the transformed Arabidopsis thaliana was sprouted and grown in a bright place at 22° C. for specified days for the continuous exposure to estrogen.
The Gus activity assay method was performed in the following way. […] Twenty plants treated with estrogen were frozen in liquid nitrogen and were crushed into powder by a homogenizer. Then, the extraction buffer (50 mM NaH2PO4, 10 mM EDTA, 0.1% Triton-X-100, 0.1% N-sodium lauroyl sarcosinate, 10 mM β-mercaptoethanol) was added and soluble protein was extracted. 4-methylumbelliferyl-β-D-glucronide (4-MUG) was used for a substrate of GUS activity assay. The extracted protein solution was added with extraction buffer containing final 1 mM 4-MUG and was reacted at 37° C. for 1 hr. […] Also, protein concentration in the solution was measured and measured values obtained by fluorescent spectroscopy were standardized by the correction depending on the total protein in the protein solution. […]

T1 sequence (P0A7C2 1-87, change not shown): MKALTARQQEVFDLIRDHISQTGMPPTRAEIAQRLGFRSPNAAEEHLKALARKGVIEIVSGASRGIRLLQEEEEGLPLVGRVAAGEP
T1 sequence (P03372 311-547, change not shown): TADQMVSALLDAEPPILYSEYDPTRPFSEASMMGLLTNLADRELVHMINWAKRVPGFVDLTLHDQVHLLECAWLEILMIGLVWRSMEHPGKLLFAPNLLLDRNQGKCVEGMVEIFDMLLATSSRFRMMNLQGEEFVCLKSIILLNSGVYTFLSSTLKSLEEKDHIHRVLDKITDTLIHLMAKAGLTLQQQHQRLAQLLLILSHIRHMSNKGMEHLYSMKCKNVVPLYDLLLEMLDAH
T1 sequence (Q15596 624-869, change not shown, further chain): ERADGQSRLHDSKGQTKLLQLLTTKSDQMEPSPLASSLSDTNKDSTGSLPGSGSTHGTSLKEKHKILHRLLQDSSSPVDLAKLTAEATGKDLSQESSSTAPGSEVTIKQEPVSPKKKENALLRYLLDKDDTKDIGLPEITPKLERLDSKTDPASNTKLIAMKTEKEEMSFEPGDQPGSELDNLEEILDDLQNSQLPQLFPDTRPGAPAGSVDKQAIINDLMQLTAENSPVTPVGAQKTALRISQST
T1 sequence (P06492 413-490, change not shown, further chain): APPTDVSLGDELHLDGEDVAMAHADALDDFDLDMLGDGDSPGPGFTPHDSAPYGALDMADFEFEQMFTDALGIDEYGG

CC(C)(c1ccc(O)cc1)c1ccc(O)cc1 [BPA, bisphenol A]
concentration from which expression of GUS gene responds / increases: > 100 nM | optimal concentration for the expression of GUS gene: 100 nM
